The subject of data set [1] is CD8 T cells. Put plainly: Phenotyping of gp100-stimulated pMel-1 CD8 T cells by flow cytometry. The data set is classed as cell-based, mouse. The note with it: for up-regulation of exhaustion marker KLRG-1 in CD8 T cells: after the second and third stimulations; for CD62L expression in CD8 T cells / CD127 expression in CD8 T cells: day 3 and/or day 7 after each stimulation with gp100; for percentage of CD8 T cells with TCM phenotype (CD62LhiCD44hi): pMel-1 splenocytes, gp100 25-33 1 μM, representative example, gated viable CD8+Vβ13+; for percentage of naïve cells (CD62LhiCD44lo) versus non-treated: after 3 days of stimulation; for reservoir of TCM cells after repeated stimulation: day 7 after each stimulation, MK-2206 0.67 μM, Akt 1/2 inhibitor 2.2 μM. On the procedure: Tumor antigen-specific CD8 T cells Unfractionated splenocytes from pMel-1 mice were homogenized and stimulated in vitro by gp10025-33 peptide at a 1 μM/ml concentration (day 0). Cells were cultured in RPMI 1640 (Lonza, Allendale, N.J.) supplemented with 10% FBS, penicillin (100 U/mL), streptomycin ([…]), 0.1% β-mercaptoethanol (Life Technologies, Invitrogen, Carlsbad, Calif.) and IL-2 (100 U/ml) (Peprotech, Rocky Hill, N.J.) at 37° C. with 5% CO2. […]. The concentration of the inhibitors was maintained throughout the culture by changing the media every 48-72 hours.
On Days 7, 14 and 21, cells were re-stimulated with gp10025-33 peptide at a 1 μM/ml concentration using feeder cells (irradiated WT splenocytes, 4000 Rads) at 1:1 ratio using the same culture conditions.
To assess the phenotype of the T cells, the cultured cells were harvested and analyzed on days 3, 7, 14 and 21. The cells were stained with APC-Cy7 labeled anti-CD8, FITC labeled anti-Vβ13, PE labeled anti-CD62L, APC labeled anti-CD44, PE-CF594 labeled anti-CD127, APC labeled anti-KLRG-1 in addition to the viability stain 7AAD (BD Biosciences, San Jose, Calif.). The same APC-Cy7 labeled anti-CD8 was used for sorting the cells using the FACS ARIA II (BD Biosciences, San Jose, Calif.).
For proliferation and phenotyping, the analyses were performed on CD8 T cells specific for the gp100 antigen and were gated on viable (7AAD−), Vβ13+CD8+ T cells. For WT and KO cells, the cells were gated on viable (7AAD−), CD8+ T cells.
In general terms: In flow cytometry, cells or beads pass a laser one at a time.

In data set [2] the test system is CD8 T cells. Put plainly: Proliferation assay (VCT dye dilution / expansion) of gp100-stimulated pMel-1 CD8 T cells. The note with it: for expansion of CD8 T cells with further stimulations: re-stimulation days 7, 14, 21, normalized to non-treated control; for proliferation of CD8 T cells (VCT dilution): day 3 after first stimulation. The data set is classed as cell-based, mouse.
Experimental: Prior to their stimulation (day 0), cells were labeled with 5 μM Violet Cell Trace (VCT) proliferation dye (Life Technologies, Invitrogen, Carlsbad, Calif.) following the manufacturers' instructions. Samples were then evaluated for CD8 T cell expansion via VCT dye dilution (day 3) using an LSRII SORP with HTS Flow Cytometer (BD Biosciences, San Jose, Calif.). The data were analyzed using FlowJo 9 or 10 (Tree Star).

For data set [3] the following is noted: intermittent dosing schedule of 480 mg twice a day; cited from earlier work.
Data set [4] has as its system CD8 T cells. Put plainly: Phenotype of anti-CD3/anti-CD28 stimulated CD8 T cells from WT and Akt KO mice. In kind it is cell-based, mouse. The note with it: day 7; anti-CD3 (1 ng/ml) + anti-CD28; MK-2206 0.67 μM, Akt 1/2 inhibitor 2.2 μM. The procedure: The cells were then stimulated using feeder cells (irradiated WT splenocytes, 4000 Rads) at 1:1 ratio (day 0) using TCR stimulation ([…], BD Biosciences, San Jose, Calif.) and co-stimulation (anti-CD28 antibody 2.5 μg/ml BD Biosciences, San Jose, Calif.) in the presence of 100 U/ml IL-2 (Peprotech, Rocky Hill, N.J.). […] Cells were cultured in the same conditions described above. To assess the phenotype of the T cells, the cultured cells were harvested and analyzed on days 3, 7, 14 and 21. The cells were stained with APC-Cy7 labeled anti-CD8, FITC labeled anti-Vβ13, PE labeled anti-CD62L, APC labeled anti-CD44, PE-CF594 labeled anti-CD127, APC labeled anti-KLRG-1 in addition to the viability stain 7AAD (BD Biosciences, San Jose, Calif.). The same APC-Cy7 labeled anti-CD8 was used for sorting the cells using the FACS ARIA II (BD Biosciences, San Jose, Calif.). For proliferation and phenotyping, the analyses were performed on CD8 T cells specific for the gp100 antigen and were gated on viable (7AAD−), Vβ13+CD8+ T cells. For WT and KO cells, the cells were gated on viable (7AAD−), CD8+ T cells.

In data set [5] the test system is CD8 T cells. Put plainly: Cytometric bead array of cytokine secretion by re-stimulated pMel-1 CD8 T cells. In kind it is cell-based, mouse. The note with it: for IL-2 secretion: re-stimulated CD8 T cells; for IFNγ secretion with further stimulations / TNF secretion with further stimulations: supernatant after 24 hours, CBA. The procedure:
Following the same activation protocol mentioned above, the pMel-1 gp100-specific CD8 T cells were harvested on day 7 after the first and second stimulation. The viable cells (trypan blue negative) were then counted and co-incubated (at 1:1 ratio) with 1 μM/ml gp10025-33 pulsated irradiated splenocytes (4000 Rads) for 24 hours using the same culture conditions. The supernatant was collected and the level of IL-2, TNF and IFN-γ was assessed using the mouse Th1/Th2/Th17 Cytokine Kit BD™ Cytometric Bead Array (CBA) kit. The data was collected using an LSRII SORP with HTS flow cytometer (BD Biosciences, San Jose, Calif.), and analyzed using the FCAP Array Software v3.0 (BD Biosciences, San Jose, Calif.).

For data set [6] the following is noted: cited from earlier work.
Data set [7] deals with 250 other protein kinases. Conditions: cited from earlier work.

For `NC1(C(=O)N[C@@H](CCO)c2ccc(Cl)cc2)CCN(c2ncnc3[nH]ccc23)CC1` [AZD5363], in the data set with CD8 T cells [1], the “up-regulation of exhaustion marker KLRG-1 in CD8 T cells” value (from here on “up-regulation”) is given as “inhibits the up-regulation”, the “CD62L expression in CD8 T cells” value is recorded as “maintains a high level”, the “CD127 expression in CD8 T cells” value is reported as “maintains a high level” and the “percentage of CD8 T cells with TCM phenotype (CD62LhiCD44hi)” value (“percentage of CD8 T cells” below) was 91%. The “expansion of CD8 T cells with further stimulations” value (shortened to “expansion of CD8 T cells”) in the data set with CD8 T cells [2] was “enhanced the proliferation”. In data set [3], the tolerability result is on record as “generally well tolerated”.

In the case of `O.O=C(O)C(F)(F)F.O=c1[nH]c2ccccc2n1C1CCN(Cc2ccc(-c3nc4cc5[nH]cnc5cc4nc3-c3ccccc3)cc2)CC1` [Akt 1/2 inhibitor, 1,3-Dihydro-1-(1-((4-(6-phenyl-1H-imidazo[4,5-g]quinoxalin-7-yl)phenyl)methyl)-4-piperidinyl)-2H-benzimidazol-2-one trifluoroacetate salt hydrate], in the data set on CD8 T cells [1], the “percentage of naïve cells (CD62LhiCD44lo) versus non-treated” value is recorded as “higher percentage”, the “up-regulation” value is recorded as “mitigates the up-regulation”, the “CD62L expression in CD8 T cells” value is “maintains a high level” and the “CD127 expression in CD8 T cells” value was “maintains a high level”. In the data set with CD8 T cells [1], the “reservoir of TCM cells after repeated stimulation” value is reported as “a high percentage was preserved” and the “percentage of CD8 T cells” value turned out to be 76%. For the same compound, in the data set with CD8 T cells [2], the “proliferation of CD8 T cells (VCT dilution)” value is recorded as “inhibited in a dose-dependent manner” and the “expansion of CD8 T cells” value is “significantly enhanced”. In the data set on CD8 T cells [4], the “TCM cells in CD8 T cells from Akt1 KO mice” value is “more TCM cells”, the “TCM cells in CD8 T cells from Akt2 KO mice” value is “maintains a significantly higher percentage of TCM cells”, the “TCM cells in CD8 T cells from Akt3 KO mice” value is “maintains a significantly higher percentage of TCM cells” and the “phenotype of CD8 T cells from WT mice” value is given as “consist mainly of TCM cells”. In addition, in the data set on CD8 T cells [5], the IL-2 secretion entry was “high secretion levels”, the “IFNγ secretion with further stimulations” value is “preserved high levels” and the “TNF secretion with further stimulations” value is listed as “preserved high levels”.

On to `NC1(c2ccc(-c3nc4ccn5c(=O)[nH]nc5c4cc3-c3ccccc3)cc2)CCC1` [MK-2206], for which, in the data set with CD8 T cells [1], the “percentage of naïve cells (CD62LhiCD44lo) versus non-treated” value was “higher percentage”, the “up-regulation” value is “inhibits the up-regulation”, the “CD62L expression in CD8 T cells” value was “maintains a high level” and the “CD127 expression in CD8 T cells” value is on record as “maintains high levels”. Besides, in the data set on CD8 T cells [1], the “reservoir of TCM cells after repeated stimulation” value is listed as “a high percentage was preserved” and the “percentage of CD8 T cells” value came to 65%. For the same compound, the dose-limiting toxicities entry in data set [6] (30, 60, 75 or 90 mg on alternate days) is “skin rash and stomatitis”. Further, the MTD in data set [6] (oral, alternate days, patients with advanced solid tumors) is recorded as 60 mg. Besides, in the data set with CD8 T cells [2], the “proliferation of CD8 T cells (VCT dilution)” value is “inhibited in a dose-dependent manner” and the “expansion of CD8 T cells” value is “expand at a significantly high rate”. Further, in the data set on CD8 T cells [4], the “TCM cells in CD8 T cells from Akt1 KO mice” value is reported as “more TCM cells”, the “TCM cells in CD8 T cells from Akt2 KO mice” value is listed as “maintains a significantly higher percentage of TCM cells”, the “TCM cells in CD8 T cells from Akt3 KO mice” value is “maintains a significantly higher percentage of TCM cells” and the “phenotype of CD8 T cells from WT mice” value is reported as “consist mainly of TCM cells”. Besides, in the data set on CD8 T cells [5] (24 hours after re-stimulation), the “IFN-γ production after the second stimulation versus non-treated” value is “high and comparable levels”; the “IFN-γ secretion after the third stimulation versus non-treated” value is given as “maintained at a significantly higher level”; the “TNF production after the second stimulation versus non-treated” value is “high and comparable levels”; the “TNF secretion after the third stimulation versus non-treated” value was “maintained at a significantly higher level”. For the same compound, in the data set on CD8 T cells [5], the IL-2 secretion entry is on record as “significantly higher levels”, the “IFNγ secretion with further stimulations” value is “maintain their ability to secrete IFNγ” and the “TNF secretion with further stimulations” value was “significantly higher levels”. Besides, the “inhibitory activities against 250 other protein kinases” value in data set [7] is reported as “no inhibitory activities”.
